According to patent US7780859B2, “Uncoupling agents” (Rhodia Operations, priority 2003, dated 2010):
Where two headings read alike, the source gives them in different places.

How the values were obtained:
[1] = test system: municipal activated sludge; assay: Laboratory screening test for growth uncoupling by oxygen consumption pattern analysis (Oxitop BOD system); details: test biocides at 1, 2.5, 5, 10 and 25 mg/l; 2,4-dinitrophenol at 20 mg/l; 7 days at 20° C.
Description: A laboratory screening test was developed to determine the impact of chemical compounds on respiration parameters through an oxygen consumption pattern analysis using a model based on published work by Monod and Pirt^1. Growth uncoupling is characterised by an increase in oxygen consumption during bacterial growth in a synthetic growth medium. 1. Monod J. 1950, Ann Inst Pasteur, “La Technique de Culture Continue, Theorie et Applications”, 79:390-410. Monod J. 1942, “Recherches sur la Croissance des Cultures Bactériennes”. Paris Herman p. 210. Pirt S J. (1965) “The Maintenance Energy of Bacteria In Growing Cultures”. Proceedings of the Royal Society of London B 163, 224-231. “Principles of Water Quality Management”. Ed: W. W. Eckenfelder, Jr. CBI Publishing Company, Inc USA. […]
For the evaluation of proposed water-soluble biocides, the oxygen consumption kinetics are measured and, a process of computer iteration optimises the equation coefficients optimised to fit the oxygen consumption curve.
From the optimised coefficients, the degree of bacterial uncoupling can be calculated. […]
Three conventional water treatment biocides were evaluated as bacterial water-soluble biocides. […]
Based on the liquid sludge, 2,4-dinitrophenol was dosed at 20 mg/l, this being the known level at which significant uncoupling would result. The test biocides were each evaluated at 1, 2.5, 5, 10 and 25 mg/l. […]

sludge microorganisms [2] = details: for Growth Yield / Specific Activity / Growth Yield Reduction: flash mixing, 52 days; for Growth Yield Reduction: vs untreated control
Description: A series of semi-continuous chemostat reactors was constructed to simulate wastewater treatment processes.
The central part of the equipment is the biological chemostat reactor 1. The reactor vessel 2 is made of glass, with an internal volume of 10 liters and is fitted with pH 3 and dissolved oxygen 4 sensors and an air sparge 5. This contains the sludge, which is, essentially, a mass of typical wastewater treatment microorganisms. The reactor operates at an ambient temperature (approximately 20° C.).
Simulated wastewater 13 is contained in a separate vessel 6 and maintained at 4° C. to prevent microbial spoilage. It is transferred into the reactor via a supply line 7 and a peristaltic pump 8.
A recirculating line 9 is provided on the reactor comprising a length of flexible silicone tubing and a peristaltic pump 10. The peristaltic pump extracts the sludge from the reactor into the recirculation line. The candidate water-soluble biocide is introduced into this line 9 through a needle 11, which is fed by a syringe pump 12. Using this system it is possible to achieve “flash mixing” which ensures rapid contact of the water-soluble biocide with the sludge microorganisms. The internal diameter of the recirculating line was 8 mm and the flow velocity was 0.5 meters per second, which gave a contact time, between candidate water-soluble biocide and sludge of 3 seconds before it re-entered the reactor.
Treated effluent 17 is removed from the reactor into a collecting vessel 16 via an outlet line 15.
The reactor was charged with sludge obtained from the Municipal wastewater treatment works at Courly-Lyon, in France. This sludge provided the “seed” to start the process off. The reactor was then filled, to the 5 liter mark, with simulated wastewater, adjusted to approximately pH 7.5, and aeration was commenced.
Each weekday (i.e. 5 times per week), 13.3% of the bioreactor contents were withdrawn to maintain the equilibrium. This ensured a sludge age in the region of 7.5 days.
Also, each weekday, after the adjustments described in the preceding paragraph, candidate water-soluble biocide (as a dilute solution) was injected into the system via the flash mixing recirculating line. The dilute solution was prepared by dissolving 10 grams of sodium hydrogen carbonate in approximately 900 ml of deionised water then adding 5 grams of candidate water-soluble biocide and mixing well. The mixture was then made up to 1 liter with deionised water. The appropriate volume of this dilute solution was injected to achieve the required dose level.
The experiment was conducted for 52 days before decommissioning the system.
Compound X was evaluated in the test. This compound is a 75% aqueous solution of tetrakis(hydroxymethyl)phosphonium sulphate (THPS). Two concentrations were evaluated: 2 and 4 milligrams per liter per day.

sludge microorganisms [3] = details: 4 mg/l/day, pre-dilution, 52 days
Procedure: The equipment used in this test sequence was identical to that used for example 1 except that the reactor was not fitted with a recirculating line for flash mixing.
The procedure was identical to that used for example 1 except that the method of dosing Compound X was different. In this case, 5 grams of Compound X was mixed into a solution containing 5 grams of sodium hydrogen carbonate in 1 liter of deionised water. 4.0 ml of this solution was added to 500 ml of clarified wastewater which had been extracted from the bioreactor. The treated clarified wastewater was then returned to the bioreactor and normal operation of the bioreactor was resumed. The final concentration of Compound X in the bioreactor therefore equates to 4 mg per liter. This procedure was conducted daily, 5 times per week.
The experiment was conducted in parallel with example 1, i.e. for 52 days before decommissioning the system.
A Compound X concentration of 4 milligrams per liter per day was used.

Molecule | level of uncoupling (percentage uncoupling, FIG. 4) [1] | Growth Yield (sludge microorganisms [2]; 2 mg/l/day) | Specific Activity (sludge microorganisms [2]; 2 mg/l/day) | Growth Yield Reduction (sludge microorganisms [2]; 2 mg/l/day) | Growth Yield (sludge microorganisms [2]; 4 mg/l/day) | Specific Activity (sludge microorganisms [2]; 4 mg/l/day) | Growth Yield Reduction (sludge microorganisms [2]; 4 mg/l/day) | sludge growth (sludge microorganisms [2]; flash treatment, low dose levels) | concentration of protozoans and other higher organisms in the sludge (sludge microorganisms [2]; treated sludge relative to untreated) | filamentous bacteria in the sludge (sludge microorganisms [2]; treated systems vs untreated control) | Growth Yield (sludge microorganisms [3]) | Specific Activity (sludge microorganisms [3]) | Growth Yield Reduction (sludge microorganisms [3]; vs untreated control)
CCCCCCCCCCCC[N+](C)(C)C.[Cl-] [C, Dodecyltrimethylammonium chloride] | greater levels of uncoupling at significantly lower dose levels than the conventional water-soluble biocide, 2,4-dinitrophenol |  |  |  |  |  |  |  |  |  |  |  | 
tetrakis(hydroxymethyl)phosphonium sulphate [Compound X] |  | 0.202 g MLSS/g COD | 0.582 g COD/g MLSS.d | 27.7% | 0.167 g MLSS/g COD | 0.772 g COD/g MLSS.d | 37.6% | significantly reducing sludge growth | significantly higher concentration | substantially absent | 0.201 g MLSS/g COD | 0.636 g COD/g MLSS.d | 26.4%
